Earlier results as cited in US20030109670A1, “Cone snail peptides” (University of Utah Research Foundation, priority 2001, published 2003).
Ends that are not written are not given here.

Assays:
[1] = in vivo
[2] = in vivo; remark: listed apart in the source
[3] = IBS patients

For “Contulakin-G: 16 amino acid O-linked glycopeptide from Conus geographus, agonist of neurotensin receptors (QSEEGGSNATKKPYIL; also: O-linked glycan, site not given here; UniProt Q9XYR5 51-66, looked up)”, the “potency in inhibiting pain relative to neurotensin” value [1] is listed as “significantly more potent than neurotensin”.

For `CSCC[C@@H]1NC(=O)[C@H](CC(C)C)NC(=O)[C@H](CCCNC(=N)N)NC(=O)[C@H](CO)NC(=O)[C@@H]2CSSC[C@@H]3NC(=O)[C@H](CO)NC(=O)CNC(=O)[C@H]([C@@H](C)O)NC(=O)[C@H](CSSC[C@H](N)C(=O)N[C@@H](CCCCN)C(=O)NCC(=O)N[C@@H](CCCCN)C(=O)NCC(=O)N[C@@H](C)C(=O)N[C@@H](CCCCN)C(=O)N2)NC(=O)[C@H](CSSC[C@@H](C(N)=O)NC(=O)[C@H](CCCCN)NC(=O)CNC(=O)[C@H](CO)NC(=O)[C@H](CCCNC(=N)N)NC3=O)NC(=O)[C@H](CC(=O)O)NC(=O)[C@H](Cc2ccc(O)cc2)NC1=O` [ω-Conotoxin MVIIA], the “potency relative to morphine” value [2] is listed as “approximately 1000 times” and the “tolerance or addictive properties” value [2] is listed as “does not produce the tolerance or addictive properties of opiates”.

In the case of `Cc1[nH]cnc1CN1CCc2c(c3ccccc3n2C)C1=O` [Alosteron], the “perception of colonic distension and gut compliance” value [3] is listed as “active in modifying the perception of colonic distension and gut compliance” and the “abdominal pain, colonic transit, colon compliance” value ([3]; phase III compound) is listed as “reduce abdominal pain, slow colonic transit and increase colon compliance”.
